Results as given in patent US12275725B2, “Inhibitors of the notch transcriptional activation complex and methods for use of the same” (University of Miami, priority 2019, dated 2025).
Values after ≈ are worked out from the molar mass of the structure shown. Like-named read-outs stand apart in the source and are kept apart here.

Legend:
[1] = Pharmacokinetic study in mouse plasma; assay type: in vivo; settings: iv, i.v. 10 mg/kg
[2] = test system: esophageal adenocarcinoma patient-derived xenograft (EAC47 PDX tumor); experiment: Esophageal adenocarcinoma patient-derived xenograft (PDX) model; assay type: in vivo; settings: NSG mice, 25 days of treatment
Method: Mouse Xenograft Studies Six-week-old NOD-SCID gamma (“NSG”) mice were purchased from Jackson Laboratories and CD-1 Nude mice were purchased from Charles River Laboratories. For the cell line based xenografts assay, 5×10^6 OE19 cells in 200 μl serum-free culture medium were injected subcutaneously per mouse. The mice in the treatment group were injected with 15 mg/kg NADi-351 daily, and the mice in the control group were injected with the same volume of vehicle (DMSO). Subcutaneous tumor growth was measured once every 4 days using calipers along with body weight. The experiment was discontinued on day 28. PDX cancer models were established, as described in Zhang et al, Establishment of Patient-Derived Xenograft (PDX) Models of Human Breast Cancer, Current Protocols in Mouse Biology, 3:21-29 (2013), in NSG mice. Briefly, 10 mm^3 pieces of primary EAC47 PDX tumor were transplanted subcutaneously into the flanks of NSG mice using a 13G telescopic needle. When the tumors reached 200 mm^3, the mice were split into two uniform groups for treatment. NADi-351 (20 mg/kg) and vehicle were administered daily by intraperitoneal (“IP”) injection for 24 days. Tumor growth was monitored every 4 days and tumor volume was measured by the formula: Volume=(S×S×L)/2, where S and L are the short and long dimensions. […]

[3] = molecular target: T1, Notch1 transcriptional complex (Homo sapiens, UniProt P46531); experiment: 2xCSL DNA affinity precipitation, OE33 nuclear lysate: Notch1; assay type: cell-based; settings: OE33, 48 hours of treatment
T1 construct: endogenous in cells; host or cells: OE33 cells, nuclear lysate
Method: DNA Affinity Purification
Streptavidin agarose beads (Pierce) were incubated with previously annealed 47-mer biotinylated dsDNA containing two high-affinity CSL binding sites facing forward (2×CSL binding DNA) or 2 mutated CSL binding sites (mut. DNA). Sequences were previously reported by Weaver et al. (2014) Cancer Res. The nuclear lysates of OE33 cell lines were incubated with the DNA streptavidin beads, and bound proteins were analyzed by Western blot. Protein analysis was carried out using conventional SDS-PAGE and transfer techniques. Blots were probed with the indicated antibody (“Ab”), using standard conditions, and detected using enhanced chemiluminescence (“ECL”). The following Ab were used: anti-Notch1^val1744 (4147S, Cell Signaling Technology), anti-Notch2^val1697 (SAB4502022, Sigma-Aldrich), anti-Notch3 (5276S, Cell Signaling), anti-CSL (5313S, Cell signaling), anti-SP1 (5931S, Cell Signaling), and anti-GAPDH (ab9483 Abcam).

[4] = Pharmacokinetic study in mouse plasma; assay type: in vivo; settings: for Cmax: read-out: *C0/Cmax; for bioavailability: mouse
Method: Pharmacokinetic studies were performed as previously described (Astudillo et al. (2016) Cancer Res). The following treatments were administered: NADi-260 via intraperitoneal (i.p.) route at 100 mg/kg, NADI-260 via intravenous route (i.v.) at 2 mg/kg, NADi-351 via i.p. at 10 mg/kg, NADi-351 via […] at 10 mg/kg and NADi-351 via oral route (PO) at 50 mg/kg. Blood samples were collected from each treatment group and their respective control grounds, plasma was separated from blood immediately by centrifugation at 4000 rpm for 10 min at 4° C. and stored below −70° C. until bioanalysis. All samples were processed for analysis by protein precipitation using acetonitrile and analyzed by fit for purpose LC-MS/MS method. Pharmacokinetic parameters were calculated using the non-compartmental analysis module of Phoenix WinNonlin (Version 6.3). Histological Analysis of Mouse Intestine Tissue

Notch target genes = experiment: Quantitative RT-PCR of Notch target genes in OE33 cells; assay type: cell-based, human; settings: OE33, 48 h, compared to control (DMSO), normalized to TBP
Method: Quantitative RT-PCR Other Assays
RNA was isolated from OE33 cells treated with either DMSO (vehicle) or NADi-351 for 48 h, using an RNA purification kit (Qiagen), following the manufacturer's instructions. cDNA was synthesized using the High Capacity cDNA Reverse Transcription kit (Applied Biosystems), according to the manufacturer's instructions. qPCR reactions were carried out in the Bio-Rad CFX96 thermal cycler using Sybr Green Master Mix (Bio-Rad). Gene expression was normalized to housekeeping gene TBP. […]

intestinal crypts = experiment: Histological analysis of mouse intestine tissue (H&E and PAS staining); assay type: in vivo, BALB/c mice; settings: 5 days; DBZ at efficacious dose, NADi-351 at 4x the efficacious dose
Method: The compounds and salts disclosed herein no not induce goblet cell metaplasia in intestinal crypts. Intestinal crypts were exposed to vehicle (DMSO), an efficacious dose of dibenzazepine (“DBZ”), a γ-secretase inhibitor, and 4× the efficacious dose of NADi-351 and stained with a hemotoxylin and eosin (“H&E”) stain and a periodic acid-Schiff (“PAS”) stain.
Six-week old BALB/c mice (Jackson Laboratories) were injected intraperitoneally with NADi-351, daily for 5 days. Small intestine samples were harvested on day 5. Formalin-fixed and paraffin-embedded tissues were sectioned at 3 μm thickness. Histochemical identification of intestinal cell types was performed with Periodic Acid-Schiff (PAS) staining kit (ab150680, Abcam), according to manufacturer's instructions.

[5] = ip, i.p. 10 mg/kg, mouse plasma
[6] = iv, i.v. 10 mg/kg, mouse plasma
[7] = po, p.o. 50 mg/kg, mouse plasma

T1 sequence (P46531 1754-2555 limits assumed): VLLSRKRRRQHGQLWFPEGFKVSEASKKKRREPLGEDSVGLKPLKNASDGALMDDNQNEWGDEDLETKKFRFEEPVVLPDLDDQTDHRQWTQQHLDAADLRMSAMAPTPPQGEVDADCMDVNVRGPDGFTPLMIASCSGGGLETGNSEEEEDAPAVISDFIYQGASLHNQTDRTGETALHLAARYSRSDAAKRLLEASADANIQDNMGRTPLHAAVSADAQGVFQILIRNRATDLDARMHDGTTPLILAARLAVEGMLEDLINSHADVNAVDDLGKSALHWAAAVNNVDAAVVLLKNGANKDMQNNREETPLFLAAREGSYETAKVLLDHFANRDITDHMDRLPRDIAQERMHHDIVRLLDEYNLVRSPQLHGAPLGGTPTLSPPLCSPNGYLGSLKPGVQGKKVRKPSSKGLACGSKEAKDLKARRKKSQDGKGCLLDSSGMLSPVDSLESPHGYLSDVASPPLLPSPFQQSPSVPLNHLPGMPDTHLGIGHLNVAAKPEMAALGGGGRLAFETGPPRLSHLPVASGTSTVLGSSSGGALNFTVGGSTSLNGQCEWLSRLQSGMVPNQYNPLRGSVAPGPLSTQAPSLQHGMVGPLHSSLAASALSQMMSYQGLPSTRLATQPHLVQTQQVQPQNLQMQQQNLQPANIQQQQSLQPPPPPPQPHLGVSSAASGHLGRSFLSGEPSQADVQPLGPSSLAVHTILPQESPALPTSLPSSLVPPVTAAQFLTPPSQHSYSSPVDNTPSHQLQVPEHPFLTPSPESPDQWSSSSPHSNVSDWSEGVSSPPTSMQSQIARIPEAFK
T1 sequence (Q06330 whole entry partner): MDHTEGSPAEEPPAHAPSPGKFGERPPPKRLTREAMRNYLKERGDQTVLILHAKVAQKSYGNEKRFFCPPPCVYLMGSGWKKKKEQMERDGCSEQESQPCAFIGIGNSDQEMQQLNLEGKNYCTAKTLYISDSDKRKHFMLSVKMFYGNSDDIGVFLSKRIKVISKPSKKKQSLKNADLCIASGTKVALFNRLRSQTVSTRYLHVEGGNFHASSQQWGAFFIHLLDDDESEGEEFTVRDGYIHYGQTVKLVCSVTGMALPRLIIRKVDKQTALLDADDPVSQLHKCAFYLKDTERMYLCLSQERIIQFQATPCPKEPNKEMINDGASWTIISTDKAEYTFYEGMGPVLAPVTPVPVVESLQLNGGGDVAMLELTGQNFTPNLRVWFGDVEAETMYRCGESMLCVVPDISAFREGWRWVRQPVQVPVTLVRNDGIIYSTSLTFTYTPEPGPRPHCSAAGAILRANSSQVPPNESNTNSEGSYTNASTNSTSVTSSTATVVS

AUC(0-t) [1]: 4570 ng·h/mL
Cmax ([1]; back extrapolated, read-out: *C0/Cmax): 15900 ng/mL
formation of the Notch1 intracellular domain (N1icd) complex [3]: inhibited the formation
AUC(0-inf) [4, 5]: 4550 ng·h/mL
AUC(0-t) [4, 5]: 4550 ng·h/mL
Tmax [4, 5]: 15 min
Cmax [4, 5]: 8200 ng/mL
AUC(0-inf) [4, 6]: 4570 ng·h/mL
clearance [4, 6]: 36.5 mL/min/kg
half-life [4, 6]: 87.6 min
Vd ([4]; iv, i.v. 10 mg/kg, mouse plasma, read-out: Vss): 0.8 L/kg
bioavailability ([4]; FIG. 3): excellent bioavailability
bioavailability ([4]; plasma, po, p.o. 50 mg/kg, read-out: % F): > 100%
AUC(0-inf) [4, 7]: 38000 ng·h/mL
AUC(0-t) [4, 7]: 37900 ng·h/mL
Tmax [4, 7]: 30 min
Cmax [4, 7]: 17500 ng/mL
solubility (physchem; pH 1.2, simulated gastric fluid): 158 ± 7.7 µM (≈ 73.3 µg/mL)
solubility (physchem; pH 6.5, fassif): 150 ± 4.1 µM (≈ 69.9 µg/mL)
solubility (physchem; pH 7.4, aqueous buffer): 155 ± 9.6 µM (≈ 72 µg/mL)
SMILES: COc1cc(/C(C)=C2\SC(=S)N(CC(=O)N(C)C)C2=O)cc(F)c1OCc1nnc[nH]1 [NADi-351, (Z)-2-(5-(1-(4-((1H-1,2,4-triazol-3-yl)methoxy)-3-fluoro-5-methoxyphenyl)ethylidene)-4-oxo-2-thioxothiazolidin-3-yl)-N,N-dimethylacetamide]
body weight of the subjects [2]: remained constant
volume of the tumor ([2]; compared to control): significantly inhibited compared to control
metabolic stability compared with NADi-260 ([4]; mouse plasma, FIG. 3): significantly improved metabolic stability
expression of Notch target genes (Notch target genes): decreased the expression of Notch target genes
goblet cell metaplasia / crypt integrity (H&E and PAS staining) (intestinal crypts): no goblet cell metaplasia and intact crypts
